The subject of assay [1] is HEK/SC100G cells. Description: GAL4-UAS luciferase reporter assay in living cells. The assay is classed as cell-based. The following applies: final concentration 10 μM. The text has this: A preproenkephalin-derived signal peptide was inserted into C99, and GAL4 (i.e., a yeast-derived transcription factor) was inserted immediately downstream of the transmembrance domain of C99, to thereby prepare a construct (SC100G). The construct (SC100G) was subcloned into pcDNA3.1/Hygro vector (Invitroger).
A UAS sequence was inserted upstream of luciferase in pGL3(R2.2) vector (Promega), to thereby prepare a construct (UAS-luc), and the construct was employed as a reporter construct. eGFP was subcloned into pcDNA3 (Invitrogen), and the thus-prepared pcDNA3-eGFP was employed as a control vector for monitoring the number of cells. […]
(§1) HEK/SC100G cells or HEK/NΔEGV cells were inoculated into a 48-well multiplate (2.5×10^4 cells). […] After culturing for 12 hours, cells and a culture supernatant were recovered, and the amount of Aβ was determined through a reporter assay or ELISA.
(§2) The recovered cells were lysed in a lysis buffer (Promega), and the resultant lysate was subjected to the reporter assay. […] The amount of luciferase luminescence was normalized by the concentration of protein (in the case of HEK/SC100G cells), or by the amount of eGFP luminescence (in the case of HEK/NΔEGV cells), to thereby yield relative light unit (RLU). […]
For orientation: Reporter assays use an easily measured gene product as a stand-in for the process of interest.

Assay [2] has as its system A549 cells. Description: Cell viability by the MTT method. The format is cell-based, human. The following applies: final concentration 100 μM, 72 hours, vs untreated, FIG. 12. How it is done:
HeLa cells or A549 cells (5×10^3 cells) were inoculated onto a 96-well multiplate and treated with DAPT (final concentration: 100 μM) for 72 hours. After the 72-hour treatment, MTT diluted with PBS was added to the plate so that the final MTT concentration was 500 μg/mL, followed by culturing at 37° C. for three to four hours. Thereafter, stop solution (10% SDS, 0.01 M HCl) was added to the plate for termination of reaction, and the plate was allowed to stand still at 37° C. overnight, followed by dissolution of produced formazan. The formazan solution was uniformly mixed through pipetting, and absorbance was measured at 550 nm, to thereby calculate cell viability. […] Subsequently, in order to confirm that this reduction in cell viability was attributed to inhibition of γ-secretase activity, endogenous nicastrin of A549 cells was knocked down through treatment with nicastrin-corresponding short interference RNA (siRNA), and change in cell viability was determined. […]
Subsequently, the effect of the above-prepared antibodies on survival of A549 cells was examined. Each of the antibodies was added to A549 cells so that the final antibody concentration was 10 μg/mL, and, 96 hours after addition of the antibody, cell viability was determined through the MTT method.

For assay [3], the system named is HeLa cells. Put plainly: Cell viability by the MTT method. The assay is classed as cell-based, human. The conditions noted are these: final concentration 100 μM, 72 hours, vs untreated, FIG. 12. The procedure:
HeLa cells or A549 cells (5×10^3 cells) were inoculated onto a 96-well multiplate and treated with DAPT (final concentration: 100 μM) for 72 hours. After the 72-hour treatment, MTT diluted with PBS was added to the plate so that the final MTT concentration was 500 μg/mL, followed by culturing at 37° C. for three to four hours. Thereafter, stop solution (10% SDS, 0.01 M HCl) was added to the plate for termination of reaction, and the plate was allowed to stand still at 37° C. overnight, followed by dissolution of produced formazan. The formazan solution was uniformly mixed through pipetting, and absorbance was measured at 550 nm, to thereby calculate cell viability. […] Subsequently, in order to confirm that this reduction in cell viability was attributed to inhibition of γ-secretase activity, endogenous nicastrin of A549 cells was knocked down through treatment with nicastrin-corresponding short interference RNA (siRNA), and change in cell viability was determined. As a result, in the case of treatment with nicastrin siRNA, cell viability was reduced by about 20%, as compared with the case of treatment with siRNA having a random sequence (scramble) (FIG. 13).

Assay [4] relates to HEK/NΔEGV cells. Put plainly: GAL4-UAS luciferase reporter assay in living cells. The assay is classed as cell-based. The conditions noted are these: final concentration 10 μM.
Description: GAL4/VP16 was bound to NΔE (including N99), in which deletion occurs in the extracellular domain of Notch receptor and which serves as a direct substrate for γ-secretase in a ligand-independent manner, to thereby prepare a construct (NΔEGV, Taniguchi Y., Karlstrom K., Lundkvist J., Mizutani T., Otaka A., Vestling M., Bernstein A., Donoviel D., Lendahl U., Honjo T.: Notch receptor cleavage depends on but is not directly executed by presenilins. Proc. Natl. Acad. Sci. U.S.A 2002, 99: 4014). The construct (NΔEGV) was subcloned into pcDNA3.1 vector (pcDNA3.1-NΔEGV). […]
as §1, §2

Structures are written as SMILES.

For the molecule `C[C@H](NC(=O)Cc1cc(F)cc(F)c1)C(=O)N[C@H](C(=O)OC(C)(C)C)c1ccccc1` [DAPT], the reporter activity result in assay [1] and in assay [4] was “inhibit reporter activity” in each case. Besides, the cell viability result is recorded as “significantly lower” in assay [2] and “no significant difference” in assay [3].

These data come from patent US8394376B2, “Therapeutic agents for alzheimer's disease and cancer” (The University of Tokyo, priority 2006, dated 2013).
